Key:
α2A-adrenergic receptor = target: T1, α2A-adrenergic receptor (Homo sapiens, UniProt P08913); details: for Percent of Bmax Decrease: 1 μM compound, 24 hours, HEK 293T cells stably transfected with α2A-adrenergic receptor; for down-regulation of alpha2A receptor / receptor density: binding studies, result in words
T1 sequence (P08913 1-465): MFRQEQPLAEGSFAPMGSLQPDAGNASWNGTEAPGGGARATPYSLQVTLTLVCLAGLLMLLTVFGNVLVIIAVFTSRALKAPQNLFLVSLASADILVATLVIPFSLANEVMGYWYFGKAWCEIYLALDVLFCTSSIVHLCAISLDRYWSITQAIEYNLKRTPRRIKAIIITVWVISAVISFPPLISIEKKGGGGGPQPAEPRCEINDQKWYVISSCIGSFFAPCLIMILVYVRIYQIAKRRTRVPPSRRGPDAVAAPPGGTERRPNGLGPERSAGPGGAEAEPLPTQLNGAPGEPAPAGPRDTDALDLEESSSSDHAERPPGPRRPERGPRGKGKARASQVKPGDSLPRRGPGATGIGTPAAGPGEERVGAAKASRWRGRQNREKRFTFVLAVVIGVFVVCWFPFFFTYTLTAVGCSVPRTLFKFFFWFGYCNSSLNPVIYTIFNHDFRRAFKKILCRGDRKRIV
Description: Human embryonic kidney (HEK) 293T cells stably transfected with the α2A-adrenergic receptor were grown to 50-60% confluency on T-175 culture flasks in DMEM (Gibco, cat. #11995), 10% FBS (Gibco, cat. #16140), 0.25 ug/mL puromycin (Sigma, cat. #P-8833), and 1% antibiotic-antimycotic (Gibco, cat. #15240) maintained at 37° C. and 5% CO2. […] The cells were then washed with room temperature Dulbecco's phosphate buffered saline (DPBS; Gibco, cat. #14190).
Cells were harvested with 4° C. Tris-EDTA buffer [50 mM Tris-HCl, 5 mM EDTA; pH 7.4] and centrifuged at 5,000×g for 5 minutes at 4° C. Membrane preparation was conducted by resuspending the cell pellets in 4° C. Tris-EDTA buffer and lysed with a Polytron disrupter two times (setting 7, 5 seconds each). The lysed suspension was then centrifuged at ˜35,000×g for 32 minutes at 4° C. After decanting the supernatant, the pelleted material was further lysed in 4° C. Tris buffer [50 mM Tris-HCl; pH 8.0] using the Polytron disrupter (setting 4, 5 seconds). Membranes were then aliquoted, pelleted at ˜37,000×g for 32 minutes at 4° C., and stored at −80° C. until use.
Membranes were thawed and resuspended using a Polytron disrupter in 4° C. HBSS-HEPES buffer [1 part 1M HEPES: 5 parts 10× Hank's Balanced Salt Solution: 43.8 parts H2O; pH 7.4 with KOH] and quantified via Bradford assay. The quantified protein was further diluted with HBSS-HEPES buffer to achieve a 100 μg/mL concentration. Membrane suspension was plated in a 96-well plate at 200 μLs/well ±10 μM phentolamine HCl (Sigma, cat. #P-7547) and [Methyl-^3H] Rauwolscine (15 nM to 0.05 nM; PerkinElmer, cat. #NET722250UC). The assay plate was slowly shaken and incubated at 25° C. for ninety minutes. Immediately following the above incubation, the assays were terminated by vacuum filtration over GF/B filters. Filters were then washed with 4° C. HBSS-HEPES buffer. The incorporated [Methyl-^3H] Rauwolscine was determined using a Microbeta 1450B liquid scintillation counter after the plates had dried overnight.

alpha 2A receptor = target: T2, alpha 2A receptor (Homo sapiens, UniProt P08913); experiment: biochemical
T2 sequence (P08913 1-465): T1 sequence (P08913 1-465)
Description: The extent of binding is a measure of receptor activation. […] Membranes were thawed and resuspended using a Polytron disrupter in 4° C. membrane buffer and quantified via Bradford assay. […] The above mixture was then aliquoted, 50 μL/well, in a 96 well plate, combined with an equal volume of test compound dissolved in assay buffer [50 mM Tris-HCl, 100 mM NaCl, 5 mM MgCl2, 1 mM EDTA, and 1 mM DTT, pH 7.4 and 4° C.], and allowed to incubate for 5 minutes. […] Assays were terminated by vacuum filtration over GF/B filters blocked with 0.5% BSA.

[1] = test system: visual acuity in normal DB rabbits; experiment: Visual enhancement model, spatial sweep visual evoked potential (sVEP) acuity; format: in vivo, rabbit; details: intravenous route, 10-30 minutes post-dose
Description: Spatial sweep visual evoked potential (sVEP) acuity. Spatial sVEP acuity was assessed with PowerDiva software version 1.8. Recordings were made bilaterally in conscious animals.

[2] = test system: blue light induced retinal damage; experiment: Blue light model of retinal degeneration, retinal thickness by OCT; format: in vivo, rat; details: subcutaneous pump 0.3 and 1 mg/kg/day from two days before exposure, OCT 7 days post blue light, Sprague-Dawley rats
Description: Twenty 4-month old male Sprague-Dawley rats (body weight 470-550 g) were used in this study. The animals were exposed to room light on a 12 hour light/12 hour dark cycle before the experiment. All animals were dark adapted overnight (16-20 hours) before blue light. Under the intensity of 6100-6500 lux, rats were exposed to blue light for 4 hours. After the blue light, rats were placed in the dark for another 3 days before returning to normal 12 hour light/12 hour dark. Ocular Coherence Tomography (OCT) measurement was performed at 7 days post blue light exposure.
Histology studies have shown that the reduction in retinal thickness is attributable to loss of photoreceptors.

[3] = Drug level in the retina with continuous subcutaneous pump dosing; format: in vivo, rat; details: 0.3 mg/kg/day and 1 mg/kg/day, rats

Compound	Percent of Bmax Decrease (α2A-adrenergic receptor)	down-regulation of alpha2A receptor / receptor density (α2A-adrenergic receptor)	EC50 (alpha 2A receptor)	Relative Efficacy (alpha 2A receptor; efficacy relative to the full agonist brimonidine)	visual acuity (sVEP) [1]	damage caused by blue light (retinal thickness by OCT) [2]	drug levels in the retina [3]
Brc1c(N=C2NCCN2)ccc2nccnc12 [Brimonidine, (5-bromo-quinoxalin-6-yl)-imidazolidin-2-ylidene-amine, reference compound]	−45%	induced a strong reduction in the alpha 2A receptor density					
c1cnc2c(c1)CC[C@H](Cc1c[nH]cn1)C2 [(S)-(+)-7-(1H-Imidazol-4-ylmethyl)-5,6,7,8-tetrahydro-quinoline]	−25%	induces very little down-regulation of alpha2A receptor	< 1 nM	0.6	enhances visual acuity	significantly reduced the damage caused by blue light	1.3 ng/g

Source: patent US20130137724A1, “PHARMACEUTICAL COMPOSITIONS COMPRISING 7-(1H-IMIDAZOL-4-YLMETHYL)-5,6,7,8-TETRAHYDRO-QUINOLINE FOR RETINAL NEUROPROTECTION” (ALLERGAN, INC., priority 2011, published 2013)
